From patent US11414428B2, “Inhibitors of tryptophan dioxygenases (IDO1 and TDO) and their use in therapy” (Auckland UniServices Limited, priority 2015, dated 2022)

Key:
[1] = target: Recombinant human IDO1 (rhIDO1) (Homo sapiens (Human), UniProt P14902); test: Enzymatic assay for IDO1 activity; assay type: biochemical; settings: rhIDO1 9 nM, 80 μM TRP, 37° C. 30 min
Method: Recombinant human IDO1 (rhIDO1) was expressed and purified from cultures of EC538 strain of E. coli transformed with pREP4 and pQE9-IDO plasmid. Reaction mixes were set up in 384-well microplates containing 50 mM phosphate buffer, 10 mM ascorbic, 10 μM methylene blue, 100 μg/mL catalase, 80 μM TRP, 0.01% Tween 20 (v/v) mixed with rhIDO1 (15 μL) at a final concentration of 9 nM in a total volume of 30 μL assay medium. The plates were incubated at 37° C. for 30 min, and the enzymatic reaction was terminated by adding piperidine (200 mM) and heated at 65° C. for 20 min. Fluorescence intensity was read at λex 400 nm and λem 500 nm. Test compounds were dissolved in 100% DMSO and pre-diluted in assay medium prior to adding rhIDO1. IDO1 inhibition (%) was calculated as
[formula] All experiments were carried out in triplicates, and statistical Analyses were conducted in Prism v5 (Graphpad Software, Inc., La Jolla, Calif., USA). Cell-Based Assay for IDO1 Inhibition

[2] = Cell viability (MTT colourimetric assay) in the IDO1 cell-based assay; settings: mouse, same experiment as cellular IDO1 assay, read-out: Cell cytotoxicity IC50
Method: The viability of the cells in each well in the same experiment was determined using the 3-(4,5-dimethylthiazolyl-2-yl)-2,5-diphenyltetrazolium bromide ([…]) colourimetric assay. After the removal of the supernatant for determination of IDO1 inhibition, the cells were incubated with MU (500 μg/mL) until crystal formation was observed. Plates were centrifuged for 15 min at 2500 g, and then all the supernatant in then wells was discarded. DMSO (100 μL/well) was added to dissolve the crystals and then the absorbance in each well was measured at 570 nm. Cell viability in each well was expressed as a percentage of untreated controls. Triplicate cultures were used for all experiments unless stated otherwise.

[3] = target: full length human TDO (GL261 cells) (Homo sapiens (Human), UniProt P48775); test: Cell-based assay for TDO inhibition; settings: GL261 cells over-expressing human TDO, 24 h; read-out: Cellular IC50
Method: Culture supernatant from each well was then transferred into a fresh, flat-bottomed 96-well plate, and kynurenine content was determined as described above for the IDO1 assay, and the concentration that inhibited 50% cellular enzyme activity was calculated.

[4] = Cell viability (MTT colourimetric assay) in the TDO cell-based assay; settings: mouse, same experiment as cellular TDO assay, read-out: Cell cytotoxicity IC50
Method: The viability of the cells in each well in the same experiment was determined using the 3-(4,5-dimethylthiazolyl-2-yl)-2,5-diphenyltetrazolium bromide ([…]) colourimetric assay.

Chain of Recombinant human IDO1 (rhIDO1) (P14902 whole entry): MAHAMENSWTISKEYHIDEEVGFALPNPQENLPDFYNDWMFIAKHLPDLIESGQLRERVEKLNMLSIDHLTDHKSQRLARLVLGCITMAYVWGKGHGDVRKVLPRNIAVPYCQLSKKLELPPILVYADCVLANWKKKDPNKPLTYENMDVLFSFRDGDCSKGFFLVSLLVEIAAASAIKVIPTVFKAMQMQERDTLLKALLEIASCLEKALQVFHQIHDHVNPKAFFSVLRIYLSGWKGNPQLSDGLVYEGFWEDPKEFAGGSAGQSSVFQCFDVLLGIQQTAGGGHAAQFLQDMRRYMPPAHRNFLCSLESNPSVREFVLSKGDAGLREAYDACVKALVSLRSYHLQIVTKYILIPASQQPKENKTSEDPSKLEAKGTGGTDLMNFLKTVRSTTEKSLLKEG
Chain of full length human TDO (GL261 cells) (P48775 whole entry): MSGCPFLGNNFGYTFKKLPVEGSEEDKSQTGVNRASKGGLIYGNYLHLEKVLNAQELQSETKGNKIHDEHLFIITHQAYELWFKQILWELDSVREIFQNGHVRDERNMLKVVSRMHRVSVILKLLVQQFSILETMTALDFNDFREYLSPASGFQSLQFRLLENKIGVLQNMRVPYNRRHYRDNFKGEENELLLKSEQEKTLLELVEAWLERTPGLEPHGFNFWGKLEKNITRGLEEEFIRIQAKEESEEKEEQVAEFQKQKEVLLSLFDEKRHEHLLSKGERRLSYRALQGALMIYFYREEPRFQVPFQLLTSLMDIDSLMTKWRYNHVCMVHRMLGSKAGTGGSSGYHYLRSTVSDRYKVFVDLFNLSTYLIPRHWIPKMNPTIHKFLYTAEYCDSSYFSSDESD

Row | SMILES | IC50 [1] [µM] | IC50 [2] [µM] | IC50 [3] [µM] | IC50 [4] [µM]
1 | Cc1nc2onc(NC(=O)Nc3ccc(C#N)cc3)c2c(C)c1Cl [Compound 3, 1-(5-chloro-4,6-dimethylisoxazolo[5,4-b]pyridin-3-yl)-3-(4-cyanophenyl)urea] | 10 to 100 | > 100 |  | 
2 | Cc1nc2onc(NC(=O)Nc3ccc(OC(F)(F)F)cc3)c2c(C)c1Cl [Compound 2, 1-(5-Chloro-4,6-dimethylisoxazolo[5,4-b]pyridin-3-yl)-3-(4-(trifluoromethoxy)phenyl)urea] | > 100 | > 100 |  | 
3 | Cc1nc2onc(NC(=O)Nc3ccc(Cl)cc3)c2c(C)c1Cl [Compound 8, 1-(5-Chloro-4,6-dimethylisoxazolo[5,4-b]pyridin-3-yl)-3-(4-chlorophenyl)urea] | > 100 | > 100 |  | 
4 | Cc1nc2onc(NC(=O)Oc3ccccc3)c2c(C)c1Cl [Compound 4, Phenyl (5-chloro-4,6-dimethylisoxazolo[5,4-b]pyridin-3-yl)carbamate] | 1 to 10 | > 100 | 10 to 100 | > 100
5 | Cc1nc2onc(NC(=O)Nc3ccccc3Cl)c2c(C)c1Cl [Compound 6, 1-(5-Chloro-4,6-dimethylisoxazolo[5,4-b]pyridin-3-yl)-3-(2-chlorophenyl)urea] | > 100 | > 100 |  | 
6 | Cc1nc2onc(NC(=O)Nc3cccc(Cl)c3)c2c(C)c1Cl [Compound 7, 1-(5-Chloro-4,6-dimethylisoxazolo[5,4-b]pyridin-3-yl)-3-(3-chlorophenyl)urea] | > 100 | > 100 |  | 
7 | Cc1nc2onc(NC(=O)Nc3ccccc3OC(F)(F)F)c2c(C)c1Cl [Compound 9, 1-(5-Chloro-4,6-dimethylisoxazolo[5,4-b]pyridin-3-yl)-3-(2-(trifluoromethoxy)phenyl)urea] | > 100 | > 100 |  | 
8 | Cc1nc2onc(N)c2c(C)c1Cl [Compound 1, 5-Chloro-4,6-dimethylisoxazolo[5,4-b]pyridin-3-amine] |  | > 100 |  | > 100

More lines, main results first:

Row | IC50 [1] [µM] | SMILES | IC50 [2] [µM] | IC50 [3] [µM] | IC50 [4] [µM]
9 | 10 to 100 | Cc1nc2onc(NC(=O)Nc3ccccc3)c2c(C)c1Cl [Compound 17, 1-(5-Chloro-4,6-dimethylisoxazolo[5,4-b]pyridin-3-yl)-3-phenylurea] | > 100 |  | 
10 | > 100 | Cc1nc2onc(NC(=O)Nc3ccccc3C(F)(F)F)c2c(C)c1Cl [Compound 14, 1-(5-Chloro-4,6-dimethylisoxazolo[5,4-b]pyridin-3-yl)-3-(2-(trifluoromethyl)phenyl)urea] | > 100 |  | 
11 | > 100 | Cc1nc2onc(NC(=O)Nc3cccc(OC(F)(F)F)c3)c2c(C)c1Cl [Compound 10, 1-(5-Chloro-4,6-dimethylisoxazolo[5,4-b]pyridin-3-yl)-3-(3-(trifluoromethoxy)phenyl)urea] | > 100 |  | 
12 | > 100 | CC(=O)Nc1noc2nc(C)c(Cl)c(C)c12 [Compound 20, N-(5-Chloro-4,6-dimethylisoxazolo[5,4-b]pyridin-3-yl)acetamide] | > 100 |  | 
13 | > 100 | COc1ccc(NC(=O)Nc2noc3nc(C)c(Cl)c(C)c23)cc1 [Compound 13, 1-(5-Chloro-4,6-dimethylisoxazolo[5,4-b]pyridin-3-yl)-3-(4-methoxyphenyl)urea] | > 100 |  | 
14 | > 100 | Cc1nc2onc(NC(=O)Cc3ccc(OC(F)(F)F)cc3)c2c(C)c1Cl [Compound 19, N-(5-Chloro-4,6-dimethylisoxazolo[5,4-b]pyridin-3-yl)-2-(4-(trifluoromethoxy)phenyl)acetamide] | > 100 |  | 
15 | > 100 | COc1cccc(NC(=O)Nc2noc3nc(C)c(Cl)c(C)c23)c1 [Compound 12, 1-(5-Chloro-4,6-dimethylisoxazolo[5,4-b]pyridin-3-yl)-3-(3-methoxyphenyl)urea] | > 100 |  | 
16 | > 100 | Cc1nc2onc(NC(=O)Nc3cccc(C(F)(F)F)c3)c2c(C)c1Cl [Compound 15, 1-(5-Chloro-4,6-dimethylisoxazolo[5,4-b]pyridin-3-yl)-3-(3-(trifluoromethyl)phenyl)urea] | > 100 | 10 to 100 | > 100
17 | 10 to 100 | COc1ccccc1NC(=O)Nc1noc2nc(C)c(Cl)c(C)c12 [Compound 11, 1-(5-Chloro-4,6-dimethylisoxazolo[5,4-b]pyridin-3-yl)-3-(2-methoxyphenyl)urea] | > 100 |  | 
18 | > 100 | Cc1nc2onc(NC(=O)Cc3ccccc3)c2c(C)c1Cl [Compound 18, N-(5-Chloro-4,6-dimethylisoxazolo[5,4-b]pyridin-3-yl)-2-phenylacetamide] |  |  | 
19 | > 100 | Cc1nc2onc(NC(=O)Nc3ccc(C(F)(F)F)cc3)c2c(C)c1Cl [Compound 16, 1-(5-Chloro-4,6-dimethylisoxazolo[5,4-b]pyridin-3-yl)-3-(4-(trifluoromethyl)phenyl)urea] | > 100 |  | 
